The values below come from patent US4021552A, “10-[ω-(BENZOYLPIPERIDINYL)ALKYL]PHENOTHIAZINES” (A. H. Robins Company, Incorporated, priority 1976, dated 1977).

Structures can show the parent of a compound that is named as a salt. Where two headings read alike, the source gives them in different places.

Data set [1] deals with d-amphetamine lethality in mice. As to the kind of experiment: block of lethal effects of d-amphetamine in aggregated mice (modified procedure of Burn and Hobbs). In kind it is in vivo. As to conditions: Mus musculus. The source says:
Intern. Pharmacodyn. 113: 290 (1958).
Effects of different pretreatment time intervals
on d-amphetamine lethality in mice

A short description of data set [2]: acute toxicity (72 hour LD50) in mice. The following applies: mouse, in vivo, IP, read-out: 72 hour LD50 (95% Confidence Limits).
Where [3] appears, read: IP, mice, 1 hr. pretreatment, read-out: Protective ED50 (95% confidence limits).
The mark [4] stands for this setting: IP, mice, 4 hrs. pretreatment, read-out: Protective ED50 (95% confidence limits).
The mark [5] stands for this setting: IP, mice, 8 hrs. pretreatment, read-out: Protective ED50 (95% confidence limits).
[6] abbreviates: IP, mice, 16 hrs. pretreatment, read-out: Protective ED50 (95% confidence limits).

Turning to `O=C(c1ccc(F)cc1)C1CCN(CCCN2c3ccccc3Sc3ccccc32)CC1` [Example 1, 10-[3-(4-p-Fluorobenzoylpiperidinyl)propyl]phenothiazine Fumarate Hydrate (1:4)], the ED50 – broadly, the dose at which the effect has come halfway, by size or by number of responders – was 0.94 mg/kg in data set [1] (setting [3]), 0.35 mg/kg in data set [1] (setting [4]), 1.27 mg/kg in data set [1] (setting [5]) and 12.1 mg/kg in data set [1] (setting [6]). Also, in data set [2], the 50% lethal dose (LD50) (commonly the dose at which mortality reaches 50%) at 72 h was found to be 330 mg/kg.

With `O=C(c1ccc(F)cc1)C1CCN(CCCN2c3ccccc3Sc3ccc(C(F)(F)F)cc32)CC1` [Example 4, 2-Trifluoromethyl-10-[3-(4-p-fluorobenzoylpiperidinyl)propyl]phenothiazineFumarate], the ED50 in data set [1] (setting [3]) turned out to be 1.44 mg/kg; in data set [1] (setting [4]) it was 3.5 mg/kg; in data set [1] (setting [5]), 1.4 mg/kg; in data set [1] (setting [6]), 1.89 mg/kg. The LD50 at 72 h in data set [2] turned out to be 317 mg/kg.

Turning to `CC(=O)c1ccc2c(c1)N(CCCN1CCC(C(=O)c3ccc(F)cc3)CC1)c1ccccc1S2` [Example 6, 2-Acetyl-10-[3-(4-p-fluorobenzoylpiperidiny)propyl] phenothiazine Difumarate Sesquihydrate], the ED50 in data set [1] (setting [3]) is 0.14 mg/kg; in data set [1] (setting [4]), 0.1 mg/kg; in data set [1] (setting [5]), 0.06 mg/kg; in data set [1] (setting [6]), 0.76 mg/kg. Also, the 50% lethal dose (LD50) at 72 h in data set [2] was determined as 287 mg/kg.

With `O=C(c1ccc(F)cc1)C1CCN(CCCN2c3ccccc3Sc3ccc(Cl)cc32)CC1` [Example 7, 2-Chloro-10-[3-(4-p-fluorobenzoylpiperidinyl)propyl] phenothiazine Hydrochloride Hydrate (1:4)], the ED50 in data set [1] (ip, running text: administered I.P. in mice, after 16 hours, read-out: ED50) stood at 0.72 mg/kg; in data set [1] (setting [3]), 0.17 mg/kg; in data set [1] (setting [4]), 0.53 mg/kg; in data set [1] (setting [5]) it was 0.19 mg/kg; in data set [1] (setting [6]), 0.72 mg/kg. For the same compound, the LD50 at 72 h in data set [2] came out at 248 mg/kg.
